# Assay: Isotope tracer infusion: circulatory turnover flux (Fcirc)
# Type: in vivo, mouse
# Details: fasted mice
# Source text: To confirm this idea, and to test whether the same might be true of circulating 3HB and acetoacetate, a set of isotope-tracer infusion experiments was devised. The circulatory turnover flux (Fcirc) of a given metabolite refers to the rate at which tissues collectively take up the metabolite from arterial circulation; alternatively, Fcirc can be defined as the rate at which tissues collectively excrete the metabolite into the venous circulation, as these two rates are equal at steady state in minimally perturbative tracer infusions.
# Isotope tracer infusion. For lactate circulatory turnover flux measurements, 10-14 weeks old C57BL/6 mice were catheterized via both left carotid artery and right jugular vein, as non-perturbative arterial blood sampling is required for precise measurement of circulating lactate labeling. Mice were allowed to recover for 5 days. Mice were fasted from ZT2 to ZT6.5. Sodium [2-^2H] or [U-^13C]lactate solution was diluted to 5% w/w in water, and infused into the double catheterized mice from ZT6.5 to ZT9 to pseudo steady state. Arterial blood was sampled to calculate the turnover rate for ^2H or ^13C lactate.
# For other tracing experiments, 10-14 weeks old C57BL6/J mice or mice bearing tumors (KPC flank allografts or Kras^LSL-G12D/+Trp53^−/−Pdx-1-Cre GEMM, tumor sizes ˜150 mm^3) were catheterized via right jugular vein. Mice were allowed to recover from surgery for 3-5 days. For 3HB circulatory turnover flux experiments, mice were fasted from ZT2 to ZT6.5, and [3,4,4,4-^2H] or [U-^13C]3HB were infused to catheterized mice from ZT6.5 to ZT9. Tail blood was sampled to calculate the turnover rate for ^2H or ^13C 3HB.
# Metabolic flux quantitation. Circulatory turnover flux, Fcirc was calculated as previously described (Hui et al., 2017), using arterial serum for lactate due to its substantial arterial-venous labeling gradient and tail vein serum for other nutrients:
# [formula] R is the infusion rate of the labeled tracer and L is the fractional enrichment of infused labeled form of the metabolite tracer. Fcirc values of ^2H-labeled metabolites were corrected for kinetic isotope effect (KIE, determined from the enzymatic assays) by multiplying the observed Fcirc by KIE value of ^2H tracer.
row,SMILES,circulatory turnover flux [nmol/g/min]
1,"[2H]C([2H])([2H])C([2H])(O)CC(=O)O (stereo not shown) [^2H-labeled 3HB, [3,4,4,4-^2H]3HB]",~40
2,"[13CH3][13CH](O)[13C](=O)[O-].[Na+] (stereo not shown) [^13C-labeled lactate, Sodium [U-^13C]lactate]",380
3,"[2H]C(C)(O)C(=O)[O-].[Na+] (stereo not shown) [^2H-labeled lactate, Sodium [2-^2H]lactate]",550
4,"[13CH3][13CH](O)[13CH2][13C](=O)O (stereo not shown) [^13C-labeled 3HB, [U-^13C]3HB]",~40
